# Measurements from patent US11123323B2, “Monoterpenes for treating respiratory disorders, in particular bronchopulmonary disorders” (Maria Clemetine Martin Klosterfrau Vertriebsqesellschaft MBH, priority 2008, dated 2021).
# System: production of TNF-α in ex-vivo stimulated peripheral human monocytes
# Test: TNF-α production in ex-vivo stimulated peripheral monocytes of former smokers under additional therapy
# Format: cell-based
# Conditions: long-term additional therapy with 1,8-cineol plus ICS-based therapy
# Experimental: From these patients, monocytes were obtained during ongoing therapy with ICS and incubated in vitro with a topical glucocorticoid in a dose-dependent manner.
smiles,measurement,value
"CC12CCC(CC1)C(C)(C)O2 [1,8-cineol, 1,3,3-trimethyl-2-oxabicyclo-[2.2.2]-octane]",production of TNF-α compared to normal monocytes of nonsmokers,inhibition of the production of TNF-α
